# Results reported in US6866861B1, “Method and composition for enhancing milk component concentrations” (Land O'Lakes, Inc., priority 1999, dated 2005).
# Tested on: cows
# Assay: Abomasal infusion of xylitol in cows, milk component concentrations (Example 1)
# Format: in vivo, cow
# Experimental: To determine the weight percent total solids, wet basis, in a sample, the actual weight of total solids is determined by analyzing the sample in accordance with Method #925.23 (33.2.09) of Official Methods of Analysis, Association of Official Analytical Chemists (AOAC) (16th Ed., 1995). The weight percent total solids, wet basis, is then calculated by dividing the actual weight of total solids by the actual weight of the sample. The weight percent of true protein, wet basis, for a particular sample is calculated after first determining the wet basis weight percent of total Kjeldahl nitrogen and the wet basis weight percent of non-protein nitrogen in the sample. The wet basis weight percent of total Kjeldahl nitrogen in the sample is determined using the method referenced above. The wet basis weight percent of non-protein nitrogen (NPN) in the sample is determined in accordance with Method #991.21 (33.2.12) of Official Methods of Analysis, Association of Official Analytical Chemists (AOAC) (16th Ed., 1995). The weight percent of true protein, wet basis, in the sample is then determined by subtracting the wet basis weight percent of non-protein nitrogen in the sample from the wet basis weight percent of total Kjeldahl nitrogen in the sample. To determine the weight percent lactose, wet basis, in a liquid sample, the weight of the liquid sample is first determined. The actual weight of lactose in the liquid sample may then be determined using analysis kit number 176-303, that is available from Boehringer-Mannheim of Indianapolis, Ind. in accordance with the procedural instructions included with analysis kit number 176-303. The weight percent lactose, wet basis, in the liquid sample is then calculated by dividing the actual weight of lactose in the liquid sample by the actual weight of the liquid sample. To determine the weight percent fat, wet basis, in a sample, the actual weight of fat in the sample is determined in accordance with Method #974.09 (33.7.18) of Official Methods of Analysis, Association of Official Analytical Chemists (AOAC) (16th Ed., 1995). The weight percent fat, wet basis, is then calculated by dividing the actual weight of fat in the sample by the actual weight of the sample. In this example, xylitol was abomasally infused into three different cows at a rate of 100 grams per cow per day during a 14 day test period. The rations provided to the cows during the period extending from day 0, prior to abomasal infusion of xylitol, through day 14 of the test period were the same. The only difference in feeding of the cows between day 0 and days 1-14 of the test period were that during days 1-14 the cows were abomasally infused with the dosage of 100 grams of xylitol per cow per day. The xylitol rations were mixed with water in the ratio of 150 grams of water per 100 grams of xylitol to facilitate infusion. Milk from the three cows was collected and analyzed prior to infusion (on day 0) and also was collected and analyzed on the third, seventh and fourteenth day of the test period. The results presented in Table 1 below for each milk component are averages for the milk collected from the three different cows on day 0 and a mean of the day 3, 7, and 14 concentration values, averaged over all of the test cows, for each particular milk component.
# [1] = milk, mean of days 3, 7, 14 minus day 0, 100 g/cow/day abomasal
# [2] = milk, mean of days 3, 7 and 14, 100 g/cow/day abomasal infusion, average of 3 cows
structure (smiles),measurement,setting,value
OC[C@@H](O)[C@H](O)[C@@H](O)CO [xylitol],"weight percent of fat, true protein, lactose, and total solids in the milk (conclusion in words)","abomasal infusion, 14 day test period",net increase
same,"Fat, Difference (mean − day 0)",[1],+0.31 Wt %
same,"Lactose, Difference (mean − day 0)",[1],+0.01 Wt. %
same,"Total Solids, Difference (mean − day 0)",[1],+0.39 Wt. %
same,"True Protein, Difference (mean − day 0)",[1],+0.10 Wt. %
same,Fat,[2],3.63 Wt %
same,Lactose,[2],4.66 Wt. %
same,Total Solids,[2],11.82 Wt. %
same,True Protein,[2],2.86 Wt. %
